Where two headings read alike, the source gives them in different places.
Legend:
[1] = system: PC3 (androgen independent) prostate tumor cells; experiment: Growth inhibition of prostate tumor cells, modified MTT assay; assay type: cell-based
Description: (§1) PC3 cells (filled circles) are hormone independent cells, whereas, LNCaP (opend circles) are hormone dependent cells. Y-axis indicates percentage of cell growth as measured by a modified MTT assay. X-axis in the concentration (mM) of Angeli's salt added every 24 hrs for a total of 72 hours.
(§2) A characteristic feature of PC3 (androgen independent) and LNCaP (androgen dependent) prostate tumor cells is the overexpression of an intrinsic plasma membrane Na^+/K^+ pump regulatory protein, MAT-8. As described above, overexpression of MAT-8 is a property shared with breast, pancreatic and lung carcinomas. The growth inhibition of PC3 and LNCaP cells by nitroxyl (HNO) donated by Angeli's salt (AS) was investigated.
(§3) PC3 (2500 cells/well) and LNCaP (4000 cells/well) cells were cultured in 200 μl of incubation media in each well of a 96-well assay plate 24 hours prior to the addition of AS. Following an overnight incubation at 37° C., appropriate AS concentrations were added to each well from a fresh stock solution of 0.5 M AS (Na2N2O3) in 10 mM NaOH (added to stabilize AS) diluted to 30 mM with cell culture medium. AS/HNO was added every 24 hours for a total of 72 hours. Cell viability was assayed using the MTT assay, a colorimetric method performed with minor modification according to the procedure of Mossman (1983) J. Immunol. Methods 65:55-63.

[2] = system: LNCaP (androgen dependent) prostate tumor cells; experiment: as above; assay type: cell-based
Description: as §1, §2, §3

[3] = cited from earlier work
[4] = biological target: T1, SR Ca^2+ pump (SERCA2a) (Mus musculus, UniProt O55143); conditions: brief exposure to AS (0.25 mM); SR vesicles from mouse heart; cited from earlier work
T1 construct: Using SR vesicles prepared from mouse heart; host or cells: mouse heart SR vesicles

[5] = system: cells; conditions: cited from earlier work
[6] = biological target: T2, SERCA2a (Canis lupus familiaris, UniProt O46674); experiment: EGTA-induced dephosphorylation (E2P hydrolysis) in native cardiac SR vesicles, quenched-flow mixing; assay type: biochemical, dog; conditions: 0.25 mM AS, 24° C.
T2 construct: native cardiac SR vesicles isolated from dog heart; from tissue; host or cells: dog heart, sarcoplasmic reticulum vesicles
Source text: Y-axis indicates the level of E2P (nmol/mg), which undergoes hydrolysis in step 6 of FIG. 3. X-axis indicates time following addition of Angeli's salt (sec). The inset figure represents a normalized comparison of E2P hydrolysis in the presence (+AS) or absence (−AS) of Angeli's salt.
Investigations of the mechanism of the cardiac muscle sarcoplasmic reticulum (SR) Ca^2+ pump (SERCA2a) have provided a paradigm for understanding how the interaction of nitroxyl with a regulatory protein (phospholamban) can activate the pump. SERCA2a is a P-type cation pump, i.e., it utilizes ATP as its energy source for uphill Ca^2+ transport and becomes phosphorylated by ATP during the catalytic cycle (FIG. 3). Regulation of its activity by the small intrinsic cardiac SR membrane protein, phospholamban (PLB), involves primarily steps 6 and 8 which are rate-limiting in the overall transport cycle and control Vmax (steps 6 and 8) and the affinity of the cytoplasmic Ca^2+ transport sites, Km (step 8). Mahaney et al. (2005) Biochemistry 44:7713-7724 and Antipenko et al. (1997) Biochemistry 36:12903-12910. […]
SERCA2a was initially phosphorylated at the catalytic site using 10 μM [γ^32P]ATP and then subsequently dephosphorylated by chasing with 5 mM EGTA. […] In the absence of AS/HNO, E2P decay measured at 24° C. by quenched-flow mixing in dog cardiac SR is slow ([…]) and monophasic (FIG. 4).

[7] = system: SERCA2a alone; experiment: E2P hydrolysis in Sf21 ER microsomes after EGTA chase; assay type: biochemical; conditions: 0.25 mM AS
Source text: (§4) Nitroxyl (HNO) donated by Angeli's salt (AS) enhances intracellular Ca^2+ cycling in isolated cardiac myocytes by activating Ca^2+ release from ryanodine (RyR2) receptors and Ca^2+ re-uptake by the SR Ca^2+ pump. Tocchetti et al. (2007) Circ. Res. 100:96-104. In cardiac SR vesicles, activation of Ca^2+ uptake by HNO involves a direct interaction with the pump and is accompanied by enhanced dephosphorylation of the cardiac Ca^2+-ATPase isozyme, SERCA2a. To determine whether HNO interacts with SERCA2a or its regulatory protein, phospholamban (PLB) and to characterize the protein site(s) modified by HNO, activation of SERCA2a dephosphorylation by nitroxyl using SERCA2a and PLB (WT and mutant) expressed in Sf21 cell ER microsomes (baculovirus system) was investigated. Brief exposure of SERCA2a+WT PLB to 0.25 mM AS produced a 10-fold stimulation of dephosphorylation (0.5 s^−1→5 s^−1) following an EGTA chase (Table 2). […] Exposure to dithiothreitol (2 mM DTT) reversed the activation of dephosphorylation by nitroxyl, similar to its effect on HNO-induced activation of Ca^2+ release from the RyR2 receptor. Tocchetti et al. (2007) Circ. Res. 100:96-104.

[8] = biological target: T3, SERCA2a + PLB (WT) (Canis lupus familiaris, UniProt O46674+P61012); experiment: as above; assay type: biochemical
T3 construct: made in house; host or cells: Sf21 insect cells (baculovirus), ER microsomes
Source text: as §4

[9] = biological target: T4, SERCA2a + PLB (−C) (Homo sapiens, UniProt P16615+P26678, C36A/C41A/C46A); experiment: as above; assay type: biochemical
T4 construct: made in house; host or cells: Sf21 insect cells (baculovirus), ER microsomes
Source text: as §4

[10] = AS added every 24 h for 72 h, read-out: Experiment 2 (EC50)
[11] = AS added every 24 h for 72 h, read-out: Experiment 3 (EC50)
[12] = mean of 3 independent experiments, read-out: Mean EC50
[13] = range given for both cell lines, read-out: EC50 growth inhibition over a series of three separate experiments

T4 sequence (P16615 1-997 isoform P16615-2, stated change not applied): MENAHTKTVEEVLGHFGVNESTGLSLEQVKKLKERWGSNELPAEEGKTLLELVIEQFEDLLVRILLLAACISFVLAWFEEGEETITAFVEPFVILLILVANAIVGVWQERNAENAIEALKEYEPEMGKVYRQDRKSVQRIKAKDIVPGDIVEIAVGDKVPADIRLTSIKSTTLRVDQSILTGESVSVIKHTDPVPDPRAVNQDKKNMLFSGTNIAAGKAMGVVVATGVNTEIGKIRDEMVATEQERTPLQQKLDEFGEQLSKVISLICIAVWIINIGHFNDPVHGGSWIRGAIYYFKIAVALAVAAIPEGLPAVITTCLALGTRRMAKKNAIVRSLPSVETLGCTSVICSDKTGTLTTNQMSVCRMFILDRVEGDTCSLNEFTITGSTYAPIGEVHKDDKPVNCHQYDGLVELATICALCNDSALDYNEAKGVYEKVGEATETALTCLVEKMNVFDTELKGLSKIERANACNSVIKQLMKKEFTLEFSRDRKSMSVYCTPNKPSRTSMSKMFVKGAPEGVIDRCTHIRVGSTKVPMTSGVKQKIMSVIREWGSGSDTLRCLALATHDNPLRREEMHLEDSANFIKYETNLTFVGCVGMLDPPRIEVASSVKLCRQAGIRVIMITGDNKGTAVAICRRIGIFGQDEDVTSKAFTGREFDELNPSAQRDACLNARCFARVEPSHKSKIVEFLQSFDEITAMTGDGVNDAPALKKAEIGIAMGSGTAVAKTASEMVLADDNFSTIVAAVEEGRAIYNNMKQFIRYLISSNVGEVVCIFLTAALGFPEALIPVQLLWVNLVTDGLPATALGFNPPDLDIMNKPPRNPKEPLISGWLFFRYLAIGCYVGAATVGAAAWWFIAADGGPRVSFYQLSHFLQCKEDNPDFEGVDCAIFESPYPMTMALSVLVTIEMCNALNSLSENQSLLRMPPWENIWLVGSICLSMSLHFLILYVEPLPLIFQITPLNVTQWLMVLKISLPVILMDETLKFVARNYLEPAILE
T4 sequence (P26678 whole entry C36A/C41A/C46A): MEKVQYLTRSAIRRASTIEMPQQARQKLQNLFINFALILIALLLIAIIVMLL
T3 sequence (P61012 whole entry): as the sequence (P26678 whole entry C36A/C41A/C46A) above, with E2D, K27N, A36C, A41C, A46C counted along it
T3 sequence (O46674 whole entry): as the sequence (P16615 1-997 isoform P16615-2, stated change not applied) above, with T376S, N403K, S538P, I544V, H576N, N661S, A713S, E877D, V963L counted along it
T2 sequence (P61012 whole entry partner): as the sequence (P26678 whole entry C36A/C41A/C46A) above, with E2D, K27N, A36C, A41C, A46C counted along it
T2 sequence (O46674 whole entry): as the sequence (P16615 1-997 isoform P16615-2, stated change not applied) above, with T376S, N403K, S538P, I544V, H576N, N661S, A713S, E877D, V963L counted along it
T1 sequence (P61014 whole entry partner): as the sequence (P26678 whole entry C36A/C41A/C46A) above, with K27N, A36C, A41C, A46C counted along it
T1 sequence (O55143 1-998 isoform O55143-2): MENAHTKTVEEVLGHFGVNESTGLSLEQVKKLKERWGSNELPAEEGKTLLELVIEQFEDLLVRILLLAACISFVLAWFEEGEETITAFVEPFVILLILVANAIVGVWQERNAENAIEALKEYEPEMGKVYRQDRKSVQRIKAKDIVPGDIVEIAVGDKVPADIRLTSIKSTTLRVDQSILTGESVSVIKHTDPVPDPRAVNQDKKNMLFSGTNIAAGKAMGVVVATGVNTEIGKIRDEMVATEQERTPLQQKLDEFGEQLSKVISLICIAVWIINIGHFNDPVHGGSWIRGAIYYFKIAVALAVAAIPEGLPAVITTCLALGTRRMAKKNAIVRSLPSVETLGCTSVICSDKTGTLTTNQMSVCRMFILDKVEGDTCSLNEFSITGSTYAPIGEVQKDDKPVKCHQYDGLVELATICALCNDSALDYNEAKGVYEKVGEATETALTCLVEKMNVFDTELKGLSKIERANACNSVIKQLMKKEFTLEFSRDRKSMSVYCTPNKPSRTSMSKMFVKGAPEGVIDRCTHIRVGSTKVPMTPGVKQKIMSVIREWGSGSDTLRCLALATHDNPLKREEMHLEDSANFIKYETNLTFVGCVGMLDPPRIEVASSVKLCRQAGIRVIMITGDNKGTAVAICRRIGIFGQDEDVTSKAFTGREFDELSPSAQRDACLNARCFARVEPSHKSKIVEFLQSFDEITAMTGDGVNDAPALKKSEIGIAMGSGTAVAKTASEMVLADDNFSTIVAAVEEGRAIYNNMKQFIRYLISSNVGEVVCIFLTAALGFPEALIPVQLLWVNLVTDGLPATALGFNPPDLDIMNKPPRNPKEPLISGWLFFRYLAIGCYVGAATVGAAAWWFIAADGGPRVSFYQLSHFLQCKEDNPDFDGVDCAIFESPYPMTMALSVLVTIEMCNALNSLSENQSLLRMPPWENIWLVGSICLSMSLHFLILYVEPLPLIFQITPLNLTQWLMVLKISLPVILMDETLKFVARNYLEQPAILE

EC50 ([1]; AS added every 24 h for 72 h, 50% growth inhibition, read-out: Experiment 1 (EC50)): 1400 µM
EC50 [1, 10]: 700 µM
EC50 [1, 11]: 1400 µM
EC50 [1, 12]: 1170 µM
EC50 [1, 13]: 1000 to 1700 µM
EC50 ([2]; AS added every 24 h for 72 h, read-out: Experiment 1 (EC50)): 3000 µM
EC50 [2, 10]: 900 µM
EC50 [2, 11]: 1200 µM
EC50 [2, 12]: 1700 µM
EC50 ([2]; mean of experiments 2 and 3 only (experiment 1 left out), read-out: Mean EC50): 1050 µM
EC50 [2, 13]: 1000 to 1700 µM
E2P decay, accelerated initial decay phase ([6]; without AS 11 s^−1): 77 s⁻¹
E2P decay pattern ([6]; without AS monophasic): biphasic decay pattern
A1 (%) amplitude fast phase ([8]; 0.25 mM AS, 0° C.): 11%
A2 (%) amplitude slow phase ([8]; 0.25 mM AS, 0° C.): 89%
k1 ([8]; 0.25 mM AS, 0° C.): 5.00 s⁻¹
k2 ([8]; 0.25 mM AS, 0° C.): 0.154 s⁻¹
dephosphorylation rate ([8]; 0.25 mM AS, EGTA chase, from 0.5 s^−1 without AS): 5 s⁻¹
stimulation of dephosphorylation ([8]; brief exposure to 0.25 mM AS, EGTA chase): 10 fold
A1 (%) amplitude fast phase ([9]; 0.25 mM AS, 0° C.): 100%
k1 ([9]; 0.25 mM AS, 0° C.): 0.18 s⁻¹
stimulation of dephosphorylation by nitroxyl ([9]; mutant PLB, all 3 transmembrane cysteines Cys→Ala): no stimulation
SMILES: [Na+].[Na+].[O-][N+]([O-])=NO [Angeli's salt]
water solubility [3]: highly water soluble
effect on Ca^2+ uptake [4]: activates Ca^2+uptake
cell permeation [5]: rapidly permeates cells
A1 (%) amplitude fast phase ([7]; 0° C.): 23%
A2 (%) amplitude slow phase ([7]; 0° C.): 77%
k1 ([7]; 0° C.): 4.64 s⁻¹
k2 ([7]; 0° C.): 0.174 s⁻¹
stimulation of dephosphorylation ([7]; microsomes expressing SERCA2a alone): No additional stimulation

— patent US20090280194A1, “USE OF NITROXYL (HNO) FOR THE TREATMENT OF CANCERS OVEREXPRESSING MAT-8” (priority 2008, published 2009)
